Reference: patent US7718618B2, “Human cathelicidin antimicrobial peptides” (priority 2003, dated 2010)
Ends that are not written are not given here.

How the values were obtained:
[1] = tested on: Group A Streptococcus (NZ131); format: cell-based
Method: (§1) As a positive control, synthetic LL-37 was applied to separate wells. After incubation at 37° C. overnight, the inhibition zones were recorded by CCD camera and diameters measured. To evaluate antimicrobial activity against wild-type S. aureus (clinical isolate), and enteroinvasive E. coli 029, both radial diffusion and solution killing assays were done. Radial diffusion assays were done as described for S. aureus mprF. Solution killing was done in 10% TSB in 10 mM PB (TSB=30 gm/L Tryptic Soy Broth, Sigma, St Louis Mo.; 20×PB=27.6 g/L NaH2PO4-H2O, 53.65 g/L Na2HPO4-7H2O, pH 7.4). Bacteria in log-phase growth were suspended to 1×10^6 cells/ml, peptide added and incubated at 37° C. for 2 hr. Bacteria were then plated on TSB agar (TSB, Bactoagar 13 g/L, Becton Dickinson, Sparks Md.) for direct colony count and determination of CFU.
(§2) Activity against Group A Streptococcus (NZ131) was done only in solution assay as described. To evaluate antimicrobial activity in high salt conditions, solution assay was done in 10% TSB/10 mM PBS with several salt concentrations (concentration of NaCl; 10, 50, 100, 150, 300, 500 mM). Action against the C. albicans was determined in Dixon medium (0.6% Peptone, 4% Malt Extract, 1% Glucose, 0.1% Ox Bile, 1% Tween-80) in sterile 96-well microtiter plates (Corning Inc., Corning, N.Y.) at a final volume of […]. The assay mixtures contained 1-2.5×10^4 […] freshly grown Candida, 20% Dixon medium, 0.6 mM phosphate buffer pH 7, and […] chloramphenicol. Microtiter plates were incubated at 37° C. for 24 h with peptides, then plated on Dixon agar to determine the MFC (minimum fungicide concentration).

[2] = tested on: Staphylococcus aureus mprF; assay: Radial diffusion assay against S. aureus mprF; format: cell-based
Method: Antimicrobial assays. For screening of antimicrobial activity of HPLC fractions, radial diffusion assay was used. Lyophilized HPLC fractions were dissolved in DW (GibcoBRL, Grand Island, N.Y.), and tested against Staphylococcus aureus mprF. Thin plates (1 mm) of 1% agarose in 0.5% tryptone containing approximately 1×10^6 cells/ml of S. aureus mprF were used. 1 mm wells were punched in the plates and […] of samples dissolved in tissue culture grade sterile water were loaded in each well.
as §1

[3] = tested on: enteroinvasive E. coli 029; assay: Radial diffusion assay against E. coli O29; format: cell-based
Method: as §1

[4] = tested on: wild-type S. aureus (clinical isolate); assay: Radial diffusion assay against wild-type S. aureus; format: cell-based, Staphylococcus aureus
Method: as §1

[5] = tested on: C. albicans ATCC 14053; format: cell-based, Candida albicans
Method: as §2

[6] = tested on: S. aureus mprF; assay: LL-37 incubated in sweat, radial diffusion assay against S. aureus mprF; format: cell-based, Staphylococcus aureus; conditions: protease inhibitor added during incubation, 37° C., 6 hr
Method: Antibacterial activity evaluated by radial diffusion assay against S. aureus mprF after incubation of LL-37 (32 uM) in sweat. a) Increase in the inhibition zone is seen when incubated in sweat but not 10 mM PBS or distilled water (DW). b) Diameters of inhibition zone after 6 hr incubation at 37° C. in (SWT buffer; sweat buffer salts alone), (PBS), (D.W.; distilled water), (SWT; sterile filtered human sweat at 37° C.), (SWT at 4° C.), (SWT with PI, with protease inhibitor cocktail). c) Action of specific protease inhibitors on gain of antimicrobial activity. […] N.E.I.=neutrophil elastase inhibitor, L.E.I.=leukocyte elastase inhibitor. Data are triplicate determinations±SEM from single experiment representative of 3.
Sweat collection and processing. Sweat was collected on paper tissues (Kimwipes, Kimberly-Clark, GA) from healthy volunteers after exercise. After collection, 20 ml of sweat was centrifuged at 2000 g for 15 min. at 4° C., filtered through a […] (Acrodisc syringe filter, […], low protein binding, Fisher scientific, Tustin, Calif.), and frozen at −80° C. […] Protein concentrations were evaluated by BCA assay (protein assay reagent, Pierce, Rockford, Ill.) or Bradford protein assay (Bio-Rad, Hercules, Calif.) according to manufacture's instructions. […]

[7] = tested on: Group B Strep (GBS); assay: Group B Strep susceptibility to CRAMP; format: cell-based; conditions: 16 μM peptide, without NaHCO3
[8] = tested on: Staphylococcus aureus; assay: S. aureus growth inhibition (turbidity OD600) with or without carbonate; format: cell-based
Method: Carbonate was identified as the antimicrobial enhancing factor in mammalian tissue culture media via serial deletion of Minimal Essential Media (MEM) components. Staphylococcus aureus was cultured in 20% Tryptic Soy Broth (TSB), 10% Fetal Bovine Serum (FBS) and 70% of various media or media components with, or without, 32 μM LL-37 to assess which components could increase antimicrobial activity. MEM buffers are 2200 mg/L NaHCO3, 140 mg/L NaH2PO4 and 6800 mg/L NaCl. MEM salts are 200 mg/L CaCl2, 400 mg/L KCl, 98 mg/L MgSO4. All solutions were adjusted to pH 7.4. Bacterial growth was measured as the change in turbidity at OD600 and percent inhibition was determined by comparing bacterial growth in the presence of peptide to that in the absence of peptide.
Inhibition of S. aureus was measured in 20% TSB, 10% FBS 1 mM NaH2PO4, 150 mM NaCl, with either 50 mM NaHCO3 or […] Glycine buffer at various pH.
Inhibition of Staph aureus growth in the presence of various concentrations of human (LL-37), murine (CRAMP) and porcine (PR-39). Cathelicidin antimicrobial peptides was measured in 20% TSB, 1 mM NaH2PO4, with, or without, […] NaHCO3 at pH 7.4.
The growth of S. aureus in the presence, or absence, of 32 μM LL-37 was measured in 20% TSB, 10% FBS, 1 mM NaH2PO4, 150 mM NaCl, and various concentrations of NaHCO3, all at pH 7.4. […] High concentrations of NaHCO3 retarded the growth of S. aureus. […]

[9] = tested on: Salmonella; assay: Salmonella susceptibility to CRAMP; format: cell-based; conditions: 16 μM peptide, without NaHCO3
[10] = tested on: antigen presentation; assay: Antigen presentation in vitro; format: cell-based
[11] = tested on: E. coli; assay: E. coli susceptibility to CRAMP with or without NaHCO3; format: cell-based
[12] = tested on: human erythrocytes; assay: Hemolysis assay on human whole blood; format: cell-based; conditions: peptide at 100 μM; relative to 0.1% Triton X-100
Method: Hemolysis Assay. Hemolytic activity was determined on human whole blood. Freshly obtained whole blood was washed 3× in PBS and resuspended in PBS at its original volume containing peptides at indicated concentrations. Samples were incubated at 37° C. for 1.5 to 3 h, and hemolysis determined by centrifuging at 300 g and measurement of the absorbance of the supernatant at 578 nm. Hemolytic activity of each peptide was expressed as the percentage of total hemoglobin released compared to that released by incubating with 0.1% Triton X-100.

[13] = tested on: S. aureus; assay: Release of cytoplasmic beta-galactosidase from S. aureus (membrane disruption); format: cell-based; conditions: with versus without NaHCO3
Description: Release of cytoplasmic expressed beta-galactosidase was measure from bacteria with and without the addition of NaHCO3.

[14] = 16 μM peptide in presence of NaHCO3
[15] = 16 μM peptide without SOM NaHCO3

Compound: H-KSKEKIGKEFKRIVQRIKDFLRNLVPRTES-OH [KS-30]
- Liquid Assay GAS (NZ131), minimal concentration required to kill [1]: 4 μm
- Radial Diffusion Assay S. aureus MprF, minimal inhibitory concentration (MIC) [2]: 8 μm
- action against E. coli compared to LL-37 [3]: greatly increased action
- Radial Diffusion Assay E. coli (O29), minimal inhibitory concentration (MIC) [3]: 8 μm
- action against wild-type S. aureus compared to LL-37 [4]: greatly increased action
- Radial Diffusion Assay S. aureus (wt), minimal inhibitory concentration (MIC) [4]: 16 μm
- Liquid Assay C. albicans ATCC 14053, minimal concentration required to kill [5]: 2 μm

Compound: H-RKSKEKIGKEFKRIVQRIKDFLRNLVPRTES-OH [RK-31]
- Liquid Assay GAS (NZ131), minimal concentration required to kill [1]: 8 μm
- Radial Diffusion Assay S. aureus MprF, minimal inhibitory concentration (MIC) [2]: 8 μm
- action against E. coli compared to LL-37 [3]: greatly increased action
- Radial Diffusion Assay E. coli (O29), minimal inhibitory concentration (MIC) [3]: 8 μm
- action against wild-type S. aureus compared to LL-37 [4]: greatly increased action
- Radial Diffusion Assay S. aureus (wt), minimal inhibitory concentration (MIC) [4]: 16 μm
- Liquid Assay C. albicans ATCC 14053, minimal concentration required to kill [5]: 4 μm

Compound: NCCc1ccc(S(=O)(=O)F)cc1 [AEBSF]
- blocking of the increase in antimicrobial activity of LL-37 in sweat [6]: most effective in blocking the increase in antimicrobial activity

Compound: CRAMP
- susceptibility of Group B Strep (GBS) [7]: susceptible even without NaHCO3
- susceptibility of S. aureus [8, 14]: became susceptible
- susceptibility of S. aureus [8, 15]: resistant
- susceptibility of Salmonella [9]: susceptible even without NaHCO3
- antigen presentation in vitro [10]: inhibits antigen presentation in vitro
- susceptibility of E. coli [11, 14]: became susceptible
- susceptibility of E. coli [11, 15]: resistant

Compound: SSLLEKGLDGAKKAVGGLGKLGKDAVEDLESVGKGAVHDVKDVLDSV (listed as Homo sapiens) [DCD, dermcidin antimicrobial peptide of human sweat, reference compound]
- Liquid Assay GAS (NZ131), minimal concentration required to kill [1]: >64 μm
- Radial Diffusion Assay S. aureus MprF, minimal inhibitory concentration (MIC) [2]: >64 μm
- Radial Diffusion Assay E. coli (O29), minimal inhibitory concentration (MIC) [3]: >64 μm
- Radial Diffusion Assay S. aureus (wt), minimal inhibitory concentration (MIC) [4]: >64 μm
- Liquid Assay C. albicans ATCC 14053, minimal concentration required to kill [5]: >32 μm

Compound: KRIVQRIKDFLRNLVPRTES [KR-20]
- Liquid Assay GAS (NZ131), minimal concentration required to kill [1]: 4 μm
- Radial Diffusion Assay S. aureus MprF, minimal inhibitory concentration (MIC) [2]: 16 μm
- Radial Diffusion Assay E. coli (O29), minimal inhibitory concentration (MIC) [3]: >64 μm
- Radial Diffusion Assay S. aureus (wt), minimal inhibitory concentration (MIC) [4]: >64 μm
- Liquid Assay C. albicans ATCC 14053, minimal concentration required to kill [5]: 10 μm

Compound: CC[C@H](C)[C@H](NC(=O)[C@H](CCCCN)NC(=O)[C@H](CCC(=O)O)NC(=O)[C@H](CCCCN)NC(=O)[C@H](CO)NC(=O)[C@H](CCCCN)NC(=O)[C@H](CCCNC(=N)N)NC(=O)[C@H](Cc1ccccc1)NC(=O)[C@H](Cc1ccccc1)NC(=O)[C@H](CC(=O)O)NC(=O)CNC(=O)[C@H](CC(C)C)NC(=O)[C@@H](N)CC(C)C)C(=O)NCC(=O)N[C@@H](CCCCN)C(=O)N[C@@H](CCC(=O)O)C(=O)N[C@@H](Cc1ccccc1)C(=O)N[C@@H](CCCCN)C(=O)N[C@@H](CCCNC(=N)N)C(=O)N[C@H](C(=O)N[C@H](C(=O)N[C@@H](CCC(N)=O)C(=O)N[C@@H](CCCNC(=N)N)C(=O)N[C@H](C(=O)N[C@@H](CCCCN)C(=O)N[C@@H](CC(=O)O)C(=O)N[C@@H](Cc1ccccc1)C(=O)N[C@@H](CC(C)C)C(=O)N[C@@H](CCCNC(=N)N)C(=O)N[C@@H](CC(N)=O)C(=O)N[C@@H](CC(C)C)C(=O)N[C@H](C(=O)N1CCC[C@H]1C(=O)N[C@@H](CCCNC(=N)N)C(=O)N[C@H](C(=O)N[C@@H](CCC(=O)O)C(=O)N[C@@H](CO)C(=O)O)[C@@H](C)O)C(C)C)[C@@H](C)CC)C(C)C)[C@@H](C)CC [LL-37]
- % hemolysis [12]: 9%

Compound: Aprotinin
- blocking of the increase in antimicrobial activity of LL-37 in sweat [6]: most effective in blocking the increase in antimicrobial activity

Compound: Polymyxin B
- leakage of cytoplasmic protein (beta-galactosidase) [13]: induces greater leakage of cytoplasmic protein with carbonate
